From patent US8114880B2, “Piperidine or piperazine substituted tetrahydro-naphthalene-1-carboxylic acid MTP inhibiting compounds” (Janssen Pharmaceutica N.V., priority 2006, dated 2012) come the findings set out here.

Molecules are shown by their SMILES. Bounds are passed on as bounds.

The term IC50 denotes the concentration that gives 50% inhibition. Read a high IC50 as weaker potency in that assay.

Chain of MTP (P55157 19-894, species assumed): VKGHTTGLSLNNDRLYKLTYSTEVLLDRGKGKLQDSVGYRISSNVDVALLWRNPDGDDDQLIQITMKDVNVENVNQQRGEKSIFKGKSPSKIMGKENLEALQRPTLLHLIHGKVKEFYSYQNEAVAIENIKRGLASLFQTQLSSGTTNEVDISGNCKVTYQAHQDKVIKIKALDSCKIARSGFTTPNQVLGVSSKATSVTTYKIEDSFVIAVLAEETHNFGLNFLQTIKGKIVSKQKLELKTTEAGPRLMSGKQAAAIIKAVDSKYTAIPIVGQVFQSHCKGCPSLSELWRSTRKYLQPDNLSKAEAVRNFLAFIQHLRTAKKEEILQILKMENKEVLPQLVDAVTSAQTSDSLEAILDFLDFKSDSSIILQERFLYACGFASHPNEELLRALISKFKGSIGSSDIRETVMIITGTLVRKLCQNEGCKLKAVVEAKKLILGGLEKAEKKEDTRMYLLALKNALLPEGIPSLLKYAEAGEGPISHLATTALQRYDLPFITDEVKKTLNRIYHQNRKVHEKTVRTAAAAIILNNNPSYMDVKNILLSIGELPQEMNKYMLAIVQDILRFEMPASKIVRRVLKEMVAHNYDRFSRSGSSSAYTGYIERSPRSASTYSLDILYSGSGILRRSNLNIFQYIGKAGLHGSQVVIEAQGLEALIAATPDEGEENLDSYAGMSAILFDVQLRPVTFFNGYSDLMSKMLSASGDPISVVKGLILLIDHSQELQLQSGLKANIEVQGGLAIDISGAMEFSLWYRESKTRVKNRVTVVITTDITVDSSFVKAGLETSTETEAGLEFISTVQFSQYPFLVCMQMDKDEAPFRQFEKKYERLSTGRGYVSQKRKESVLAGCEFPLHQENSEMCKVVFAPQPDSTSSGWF
Chain of MTP (P07237 18-508 partner, species assumed): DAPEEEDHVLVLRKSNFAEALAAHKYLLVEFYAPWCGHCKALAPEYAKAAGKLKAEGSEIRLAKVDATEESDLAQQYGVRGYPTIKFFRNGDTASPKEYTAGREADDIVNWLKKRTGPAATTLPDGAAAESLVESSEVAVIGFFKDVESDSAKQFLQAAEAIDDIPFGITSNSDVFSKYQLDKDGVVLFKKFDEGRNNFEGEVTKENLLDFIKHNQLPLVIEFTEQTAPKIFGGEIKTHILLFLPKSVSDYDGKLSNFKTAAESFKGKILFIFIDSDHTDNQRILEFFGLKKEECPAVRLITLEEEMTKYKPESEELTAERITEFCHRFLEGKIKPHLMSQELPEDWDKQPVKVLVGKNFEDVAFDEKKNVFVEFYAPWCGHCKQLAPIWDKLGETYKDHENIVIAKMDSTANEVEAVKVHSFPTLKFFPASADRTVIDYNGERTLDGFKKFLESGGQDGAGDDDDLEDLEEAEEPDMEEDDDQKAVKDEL

One assay has as its system HepG2 cells. The assay is described as follows: Quantification of the secretion of ApoB. In kind it is cell-based. To be noted: Homo sapiens, HepG2, 24 h, 24 hours of incubation, pIC50 = -log IC50. How it is done: HepG2 cells were cultured in 24-well plates in MEM Rega 3 containing 10% fetal calf serum. At 70% confluency, the medium was changed and the test compound or carrier (DMSO, 0.4% final concentration) was added. After 24 hours of incubation, the medium was transferred to Eppendorf tubes and cleared by centrifugation. A sheep antibody directed against either apoB was added to the supernatant and the mixture was kept at 8° C. for 24 hours. Then, rabbit anti-sheep antibody was added and the immune complex was allowed to precipitate for 24 hours at 8° C. The immunoprecipitate was pelleted by centrifugation for 25 minutes at 1320 g and washed twice with a buffer containing 40 mM Mops, 40 mM NaH2PO4, 100 mM NaF, 0.2 mM DTT, 5 mM EDTA, 5 mM EGTA, 1% Triton-X-100, 0.5% sodium deoxycholate (DOC), 0.1% SDS, 0.2 μM leupeptin and 0.2 μM PMSF. Radioactivity in the pellet was quantified by liquid scintillation counting. The IC50 values are usually converted to pIC50 values (=−log IC50 value) for ease of use.
As to `CCOC(=O)CNC(=O)[C@]1(c2ccccc2)CC[C@@H](C(=O)N2CCC(NC(=O)c3ccccc3OC)CC2)c2ccccc21` [Co. No. 48], the IC50 was 9770 nM.

Take `COC(=O)[C@]1(c2ccccc2)CC[C@@H](C(=O)N2CCC(NC(=O)c3cccc(OC)c3OC)CC2)c2ccccc21` [Co. No. 49]: the midpoint of inhibition, the IC50, lay at 638 nM.

`COC(=O)[C@]1(c2ccccc2)CC[C@@H](C(=O)N2CCC(NC(=O)c3cc(OC)ccc3OC)CC2)c2ccccc21` [Co. No. 50] had an IC50 of 16.1 nM.

`COC(=O)[C@]1(c2ccccc2)CC[C@@H](C(=O)N2CCC(NC(=O)c3cc(C)ccc3OC)CC2)c2ccccc21` [Co. No. 51]: the IC50 was 9.51 nM.

Molecule `COC(=O)[C@]1(c2ccccc2)CC[C@@H](C(=O)N2CCC(NC(=O)c3cc(OC)ccc3OCC(F)(F)F)CC2)c2ccccc21` [Co. No. 53] had an IC50 of 61.8 nM.

With `COC(=O)[C@]1(c2ccccc2)CC[C@@H](C(=O)N2CCC(NC(=O)c3ccccc3OC(F)F)CC2)c2ccccc21` [Co. No. 54], the IC50 was 65.8 nM.

`COC(=O)[C@]1(c2ccccc2)CC[C@@H](C(=O)N2CCC(NC(=O)c3c(O)cccc3OC)CC2)c2ccccc21` [Co. No. 55]: the IC50 was over 1000 nM.

Molecule `COC(=O)[C@]1(c2ccccc2)CC[C@@H](C(=O)N2CCC(NC(=O)c3cccnc3OC)CC2)c2ccccc21` [Co. No. 56] had an IC50 of 2.24 nM.

On to `CCOc1ncccc1C(=O)NC1CCN(C(=O)[C@@H]2CC[C@](C(=O)OC)(c3ccccc3)c3ccccc32)CC1` [Co. No. 57], for which 69.7 nM corresponded to half-maximal inhibition (IC50).

`CCCOc1cccnc1C(=O)NC1CCN(C(=O)[C@@H]2CC[C@](C(=O)OC)(c3ccccc3)c3ccccc32)CC1` [Co. No. 58]: the half-maximal inhibitory concentration (IC50) was 2.04 nM.

`COC(=O)[C@]1(c2ccccc2)CC[C@@H](C(=O)N2CCC(NC(=O)c3cc(OC)nnc3OC)CC2)c2ccccc21` [Co. No. 59] gave an IC50 of 225 nM.

For `COC(=O)[C@]1(c2ccccc2)CC[C@@H](C(=O)N2CCC(NC(=O)c3cc(O)ccc3OC)CC2)c2ccccc21` [Co. No. 61], the IC50 was 286 nM.

For the molecule `COc1ccccc1C(=O)NC1CCN(C(=O)[C@H]2CC[C@@](C(=O)NCC(=O)OC(C)(C)C)(c3ccccc3)c3ccccc32)CC1` [Co. No. 62], the concentration for half-maximal inhibition (IC50) is 42.1 nM.

Take `COc1ccccc1C(=O)NC1CCN(C(=O)[C@H]2CC[C@@](C(=O)NCC(=O)O)(c3ccccc3)c3ccccc32)CC1` [Co. No. 63]: the IC50 is over 10000 nM.

Molecule `COC(=O)CNC(=O)[C@@]1(c2ccccc2)CC[C@H](C(=O)N2CCC(NC(=O)c3ccccc3OC)CC2)c2ccccc21` [Co. No. 64] had an IC50 of 17.8 nM.

As to `COC(=O)CCNC(=O)[C@@]1(c2ccccc2)CC[C@H](C(=O)N2CCC(NC(=O)c3ccccc3OC)CC2)c2ccccc21` [Co. No. 65], the IC50 was 7.98 nM.

Consider `CCOC(=O)[C@H](C)NC(=O)[C@@]1(c2ccccc2)CC[C@H](C(=O)N2CCC(NC(=O)c3ccccc3OC)CC2)c2ccccc21` [Co. No. 66], for which the IC50 is over 1000 nM.

On to `CCOC(=O)[C@@H](C)NC(=O)[C@@]1(c2ccccc2)CC[C@H](C(=O)N2CCC(NC(=O)c3ccccc3OC)CC2)c2ccccc21` [Co. No. 67], for which 873 nM corresponded to half-maximal inhibition (IC50).

In the case of `CCOC(=O)[C@@H](NC(=O)[C@@]1(c2ccccc2)CC[C@H](C(=O)N2CCC(NC(=O)c3ccccc3OC)CC2)c2ccccc21)C(C)C` [Co. No. 68], the IC50 was over 1000 nM.

Take `CCOC(=O)[C@H](NC(=O)[C@@]1(c2ccccc2)CC[C@H](C(=O)N2CCC(NC(=O)c3ccccc3OC)CC2)c2ccccc21)C(C)C` [Co. No. 69]: the IC50 is 154 nM.

Another assay deals with MTP (Homo sapiens, UniProt P55157). Kind of assay: MTP assay (triglyceride transfer from donor to acceptor vesicles). In kind it is biochemical. To be noted: MTP activity, percent triglyceride transfer from donor to acceptor vesicles, 37° C. Put shortly:
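Radiolabelled triglyceride transfer from donor vesicles (phosphatidylcholine, 7.5 mol % cardiolipin, 0.25 mol % glycerol tri[1-^14C]-oleate) to phosphatidylcholine acceptor vesicles with BSA, pH 7.5 Tris buffer; compounds in DMSO (0.13% final), 5 min preincubation at 37° C before MTP addition. Donor vesicles removed on DEAE-52; acceptor-supernatant ^14C counts give percent transfer.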
On to `CCOC(=O)CNC(=O)[C@]1(c2ccccc2)CC[C@@H](C(=O)N2CCC(NC(=O)c3ccccc3OC)CC2)c2ccccc21` [Co. No. 48], for which it took 13.3 nM to reach half-maximal inhibition (IC50).

In turn, `COC(=O)[C@]1(c2ccccc2)CC[C@@H](C(=O)N2CCC(NC(=O)c3cccc(OC)c3OC)CC2)c2ccccc21` [Co. No. 49] had an IC50 of 18.1 nM.

Regarding `COC(=O)[C@]1(c2ccccc2)CC[C@@H](C(=O)N2CCC(NC(=O)c3cc(OC)ccc3OC)CC2)c2ccccc21` [Co. No. 50], the midpoint of inhibition, the IC50, lay at 11.6 nM.

In the case of `COC(=O)[C@]1(c2ccccc2)CC[C@@H](C(=O)N2CCC(NC(=O)c3cc(C)ccc3OC)CC2)c2ccccc21` [Co. No. 51], the IC50 was 12.8 nM.

In turn, `COC(=O)[C@]1(c2ccccc2)CC[C@@H](C(=O)N2CCC(NC(=O)c3cc(OC)ccc3OCC(F)(F)F)CC2)c2ccccc21` [Co. No. 53] showed an IC50 of 9.64 nM.

Molecule `COC(=O)[C@]1(c2ccccc2)CC[C@@H](C(=O)N2CCC(NC(=O)c3ccccc3OC(F)F)CC2)c2ccccc21` [Co. No. 54] gave an IC50 of 10.4 nM.

Take `COC(=O)[C@]1(c2ccccc2)CC[C@@H](C(=O)N2CCC(NC(=O)c3c(O)cccc3OC)CC2)c2ccccc21` [Co. No. 55]: the IC50 is 60.7 nM.

In the case of `COC(=O)[C@]1(c2ccccc2)CC[C@@H](C(=O)N2CCC(NC(=O)c3cccnc3OC)CC2)c2ccccc21` [Co. No. 56], the concentration for half-maximal inhibition (IC50) is 1.69 nM.

Turning to `CCOc1ncccc1C(=O)NC1CCN(C(=O)[C@@H]2CC[C@](C(=O)OC)(c3ccccc3)c3ccccc32)CC1` [Co. No. 57], the IC50 was 5.68 nM.

Turning to `CCCOc1cccnc1C(=O)NC1CCN(C(=O)[C@@H]2CC[C@](C(=O)OC)(c3ccccc3)c3ccccc32)CC1` [Co. No. 58], the IC50 is 149 nM.

As to `COC(=O)[C@]1(c2ccccc2)CC[C@@H](C(=O)N2CCC(NC(=O)c3cc(OC)nnc3OC)CC2)c2ccccc21` [Co. No. 59], the IC50 is over 100 nM.

As for `COC(=O)[C@]1(c2ccccc2)CC[C@@H](C(=O)N2CCC(NC(=O)c3cc(O)ccc3OC)CC2)c2ccccc21` [Co. No. 61], the IC50 is over 10000 nM.

Molecule `COc1ccccc1C(=O)NC1CCN(C(=O)[C@H]2CC[C@@](C(=O)NCC(=O)OC(C)(C)C)(c3ccccc3)c3ccccc32)CC1` [Co. No. 62] gave an IC50 of 0.713 nM.

Molecule `COc1ccccc1C(=O)NC1CCN(C(=O)[C@H]2CC[C@@](C(=O)NCC(=O)O)(c3ccccc3)c3ccccc32)CC1` [Co. No. 63] had an IC50 of over 1000 nM.

`COC(=O)CNC(=O)[C@@]1(c2ccccc2)CC[C@H](C(=O)N2CCC(NC(=O)c3ccccc3OC)CC2)c2ccccc21` [Co. No. 64] gave an IC50 of 3.87 nM.

With `COC(=O)CCNC(=O)[C@@]1(c2ccccc2)CC[C@H](C(=O)N2CCC(NC(=O)c3ccccc3OC)CC2)c2ccccc21` [Co. No. 65], it took 2.86 nM to reach half-maximal inhibition (IC50).

The molecule `CCOC(=O)[C@H](C)NC(=O)[C@@]1(c2ccccc2)CC[C@H](C(=O)N2CCC(NC(=O)c3ccccc3OC)CC2)c2ccccc21` [Co. No. 66] gave an IC50 of 20.2 nM.

`CCOC(=O)[C@@H](C)NC(=O)[C@@]1(c2ccccc2)CC[C@H](C(=O)N2CCC(NC(=O)c3ccccc3OC)CC2)c2ccccc21` [Co. No. 67] showed an IC50 of 20.2 nM.

On to `CCOC(=O)[C@@H](NC(=O)[C@@]1(c2ccccc2)CC[C@H](C(=O)N2CCC(NC(=O)c3ccccc3OC)CC2)c2ccccc21)C(C)C` [Co. No. 68], for which the IC50 is 17.9 nM.

The molecule `CCOC(=O)[C@H](NC(=O)[C@@]1(c2ccccc2)CC[C@H](C(=O)N2CCC(NC(=O)c3ccccc3OC)CC2)c2ccccc21)C(C)C` [Co. No. 69] gave an IC50 of 24.4 nM.
